Several values for one entry are separate records, joined by “and”; a condition that tells them apart may be missing. Equal entries are not always repeated.
target: α-glucosidase (Sigma, type III, from yeast) (Saccharomyces cerevisiae, UniProt P53341); assay: α-Glucosidase inhibition assay; format: biochemical; conditions: means of triplicate ± SEM
Sequence (P53341 whole entry): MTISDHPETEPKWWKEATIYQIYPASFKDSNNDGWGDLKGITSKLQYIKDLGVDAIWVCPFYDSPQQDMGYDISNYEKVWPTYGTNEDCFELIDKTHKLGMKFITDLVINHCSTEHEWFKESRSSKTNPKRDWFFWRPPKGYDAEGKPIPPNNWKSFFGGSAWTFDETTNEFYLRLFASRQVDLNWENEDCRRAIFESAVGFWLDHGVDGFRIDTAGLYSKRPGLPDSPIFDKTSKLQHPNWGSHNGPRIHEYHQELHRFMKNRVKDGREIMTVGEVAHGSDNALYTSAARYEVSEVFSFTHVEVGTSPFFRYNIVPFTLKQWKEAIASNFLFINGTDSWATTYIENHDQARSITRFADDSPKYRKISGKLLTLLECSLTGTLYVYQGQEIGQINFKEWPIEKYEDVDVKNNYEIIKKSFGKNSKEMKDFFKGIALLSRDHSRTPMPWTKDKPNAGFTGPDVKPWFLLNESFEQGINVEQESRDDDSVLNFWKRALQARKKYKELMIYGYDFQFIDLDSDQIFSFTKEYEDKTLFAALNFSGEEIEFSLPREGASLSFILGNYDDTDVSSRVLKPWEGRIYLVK
Description: In this background, according to the standard protocol [51], we examined the prepared crown ether molecules 10a–d along with parent precursor FABE 8 and the novel intermediate 7 for their in vitro α-glucosidase inhibition potential.
The protocol for the α-Glucosidase inhibition assay is built on the formation of product as a result of substrate breakdown, detected by absorbance measurement [69]. In the first step, an enzyme α-glucosidase (Sigma, type III, from yeast) was prepared in buffer solution A (0.1 mol/L potassium phosphate, 3.2 mmol/L-MgCl2, pH = 6.8) (0.1 units/mL) mixed with p-nitrophenyl-α-D-glucopyranoside dissolved to obtain the desired concentration of substrate of 6 mmol/L. Another Buffer solution B (102 µL) was prepared by mixing (0.5 M KH2PO4, 16 mmol/L-MgCl2, pH = 6.8) along with 120 µL of sample solution (0.6 mg/mL in dimethyl sulfoxide), 282 µL of water and 200 µL of substrate. In the next step, 200 µL of enzyme was added in the same reaction mixture, incubated for 5 min at 37 °C. […] The activity of enzyme inhibition was measured at 410 nm by its absorbance. […] The inhibition% is equal to Ac − As/Ac × 100, where Ac is the absorbance (control), and As is the absorbance (Sample).

Molecule	IC50
Butyl(2Z)-2-[(3aS,27S,28aS,28bS,29S)-27-(acetyloxy)-3a,28a,28b,29-tetramethyltetracosahydro-3,6-methanocyclopenta[3,4] naphtho[1,8-st][1,3,6,9,12,15,18]heptaoxacyclotetracosin-26(1H)-ylidene]-6- methylhept-5-enoate [Compound 10d]	54.3 ± 0.1 µM

tested on: not listed separately; assay: DPPH radical scavenging (antioxidant) assay; format: biochemical; conditions: means of triplicate ± SEM
Description: Oxidative stress is an imbalance between in vivo generated reactive oxygen/ nitrogen species (ROS/NOS) and the cellular antioxidant defenses. Oxidative stress is connected with more than one hundred illnesses that include cardiovascular, cancer, neurogenerative diseases, hypertension, atherosclerosis, and diabetes mellitus. Antioxidants decrease the cellular level of ROS and thus play a significant role in preventing related diseases. Antioxidants react with ROS through three possible mechanisms: (i) hydrogen transfer, (ii) electron transfer, and (iii) metal chelation. DPPH radical scavenging assay relies on the electron/hydrogen atom transfer (mixed) mechanism. The prepared crown ethers with variable cavity sizes 10a–d, parent precursor (FABE) 8, and the novel intermediate 7 were examined for antioxidant behavior using the DPPH radical scavenging protocol, following the literature, and the results are shown in Table 1.
Gulcin et al. proposed a method for the free radical scavenging activity (antioxidant activity) using 1,1-diphenyl-2-picryl-hydrazil (DPPH). An ethanolic solution of DPPH was prepared at a concentration of 0.3 mM. In the next step, different concentrations of each sample were prepared in ethanol, ranging from (62.5–500 μg) by mixing 5 microliters of each sample with 95 µL of DPPH solution. The resulting mixture was transferred to 96-well plates and incubated for 30 min at 37 °C. A microtiter plate reader (Spectramax plus 384 Molecular Device, San Jose, CA, USA) was used to measure the absorbance at 515 nm, and the radical scavenging activity (%) was compared with the methanol-treated control. The standard for the protocol was Butyl hydroxyanisole (BHA). DPPH scavenging effect (%) = Ac − As/Ac × 100, where Ac is the absorbance of the control (DMSO-treated), and As is the absorbance of the sample.

Molecule	IC50
CCCCOC(=O)C(CCC=C(C)C)=C1C(OC(C)=O)CC2(C)C1CC1OCCOCCOC3CCC4(C)C(CCC2(C)C14)C3C [Compound 10a, Butyl(2Z)-2-[(3aS,16S,17aS,17bS,18S)-16-(acetyloxy)-3a,17a,17b,18-tetramethyloctahydro-3,6 methanocyclopenta[3,4]naptho[1,8hi][1,4,7]trioxyacylotridecin-15(1H)-ylidene]-6-methylhept-5-enoate]	65.5 ± 0.3 µM
CCCCOC(O)(OC(=NC1CCCCC1)NC1CCCCC1)/C(CCC=C(C)C)=C1\[C@@H](OC(C)=O)C[C@@]2(C)[C@H]1C[C@@H](O)[C@H]1[C@@]3(C)CC[C@@H](O)[C@@H](C)[C@@H]3CC[C@@]12C (some centres unmarked) [Intermediate 7]	32.9 ± 0.4 µM
COc1ccc(O)cc1C(C)(C)C [Butylated hydroxyanisole, reference compound]	44.2 ± 0.3 µM
Butyl(2Z)-2-[(3aS,27S,28aS,28bS,29S)-27-(acetyloxy)-3a,28a,28b,29-tetramethyltetracosahydro-3,6-methanocyclopenta[3,4] naphtho[1,8-st][1,3,6,9,12,15,18]heptaoxacyclotetracosin-26(1H)-ylidene]-6- methylhept-5-enoate [Compound 10d]	45.4 ± 0.9 µM
CCCCOC(=O)/C(CCC=C(C)C)=C1\[C@@H](OC(C)=O)C[C@@]2(C)[C@@H]1CC(O)[C@@H]1[C@@]3(C)CCC(O)[C@@H](C)C3CC[C@@]12C (some centres unmarked) [Compound 8, Butyl(2Z)-2-[(4a,8a,14b,16b)-16-(acetyloxy)-3,11-dihydroxy-4,8,10,14-tetramethylgonan-17-ylidene]-6-methylhept-5-enoate]	54.6 ± 0.2 µM
CCCCOC(=O)/C(CCC=C(C)C)=C1/C2CC3OCCOCCOCCOCCOC4CC[C@@]5(C)C(CC[C@@](C)(C35)[C@@]2(C)C[C@@H]1OC(C)=O)[C@@H]4C (stereo partly drawn) [Compound 10c, Butyl(2Z)-2-[(3aS,22S,23aS,23bS,24S)-22-(acetyloxy)-3a,23a,23b,24-tetramethyldocosahydro-3,6-methanocyclopenta[3,4]naphtho[1,8-no][1,4,7,10,13]pentaoxacyclononadecin-21(1H)-ylidene]-6-methylhept-5-enoate]	32.1 µM and 22.5 µM
CCCCOC(=O)/C(CCC=C(C)C)=C1/C2CC3OCCOCCOCCOC4CC[C@@]5(C)C(CC[C@@](C)(C35)[C@@]2(C)C[C@@H]1OC(C)=O)[C@@H]4C (stereo partly drawn) [Compound 10b, Butyl(2Z)-2-[(3aS,19S,20aS,20bS,21S)-19-(acetyloxy)-3a,20a,20b,21-tetramethylicosahydro-3,6-methanocyclopenta[3,4]naphtho[1,8-kl][1,4,7,10]tetraoxacyclohexadecin-18(1H)-ylidene]-6-methylhept-5-enoate]	22.5 µM and 32.1 µM

— paper PMC12073497 (Molecules, 2025)
